Paper PMC12862769 (ACS infectious diseases, 2025)
In brackets after ≈: the same amount, converted by molar mass. Where two headings read alike, the source gives them in different places.

Key:
E. faecalis HM-201 = assay: MIC assay; assay type: cell-based
E. faecalis HM-934 = assay: MIC assay; assay type: cell-based
E. faecalis NR-31970 = assay: MIC assay; assay type: cell-based
E. faecium ATCC 700221 = assay: MIC assay; assay type: cell-based
E. faecium HM-952 = assay: MIC assay; assay type: cell-based
E. faecium HM-965 = assay: MIC assay; assay type: cell-based
E. faecium HM-970 = assay: MIC assay; assay type: cell-based
E. faecium NR-31909 [1] = assay: MIC assay; assay type: cell-based
E. faecium NR-31912 = assay: MIC assay; assay type: cell-based
E. faecium NR-31933 = assay: MIC assay; assay type: cell-based
E. faecium NR-31937 = assay: MIC assay; assay type: cell-based
E. faecium NR-31954 = assay: MIC assay; assay type: cell-based
E. faecium NR-32053 = assay: MIC assay; assay type: cell-based
E. faecium NR-32094 = assay: MIC assay; assay type: cell-based
E. avium ATCC 14025 = assay: MIC assay; assay type: cell-based
[2] = test system: E. casseliflavus ATCC 700327; assay: MIC assay; assay type: cell-based
E. durans ATCC 11576 = assay: MIC assay; assay type: cell-based
E. gallinarum ATCC 49373 = assay: MIC assay; assay type: cell-based
E. hirae ATCC 10541 = assay: MIC assay; assay type: cell-based
E. raffinosus ATCC 49464 = assay: MIC assay; assay type: cell-based
[3] = test system: E. saccharolyticus ATCC 43076; assay: MIC assay; assay type: cell-based
[4] = test system: Listeria Monocytogenes ATCC 19111; assay: MIC assay; assay type: cell-based; details: encodes only α-CA, no MpsAB homologs
[5] = test system: Staphylococcus aureus USA300; assay: MIC assay; assay type: cell-based; details: no CAs, expresses MpsAB homologs
[6] = test system: Staphylococcus epidermidis NRS101; assay: MIC assay; assay type: cell-based; details: no CAs, expresses MpsAB homologs
[7] = test system: Bacillus subtilis ATCC11774; assay: MIC assay; assay type: cell-based; details: encodes both MpsAB and CAs
[8] = test system: E. faecalis and E. faecium strains; assay: MIC assay, panel of 25 E. faecalis and E. faecium strains; assay type: cell-based; details: ambient air
[9] = test system: all tested Enterococcus strains; assay: MIC assay, all tested Enterococcus strains; assay type: cell-based
E. faecium α-CA = assay: in vitro inhibition of bacterial α-CA; assay type: biochemical
E. faecium NR-31909 [10] = assay: E. faecium septicemic peritonitis mouse model; assay type: in vivo, BALB/c mice
E. faecalis HM-334 = details: cited from earlier work
E. faecalis HM-335 = details: cited from earlier work
[11] = test system: α-Carbonic anhydrase (Q3XYE8); details: lysates pre-incubated with 100 μM free inhibitor, compared to Biotin-AZM; α-CA
E. faecalis NR-31971 = details: cited from earlier work
E. faecalis NR-31972 = details: cited from earlier work
E. faecium HM-968 = details: cited from earlier work
E. faecium NR-28978 = details: cited from earlier work
E. faecium NR-31903 = details: cited from earlier work
E. faecium NR-31914 = details: cited from earlier work
E. faecium NR-31916 = details: cited from earlier work
E. faecium NR-32052 = details: cited from earlier work
E. faecium NR-32065 = details: cited from earlier work

With `CC(=O)Nc1nnc(S(N)(=O)=O)s1` [AZM, acetazolamide] the MIC (E. faecalis HM-201; 5% CO2 atmosphere at 37° C) was greater than 288 µM, the MIC (E. faecalis HM-201; ambient air at 37° C) was 18.0 µM (≈ 4 µg/mL) and the MIC (E. faecalis HM-934; 5% CO2 atmosphere at 37° C) was greater than 288 µM. It also gave an MIC (E. faecalis HM-934; ambient air at 37° C) of 9.01 µM (≈ 2 µg/mL), an MIC (E. faecalis NR-31970; 5% CO2 atmosphere at 37° C) greater than 288 µM and an MIC (E. faecalis NR-31970; ambient air at 37° C) of 18.0 µM (≈ 4 µg/mL). For the same compound, the MIC (E. faecium ATCC 700221; 5% CO2 atmosphere at 37° C) was greater than 288 µM, the MIC (E. faecium ATCC 700221; ambient air at 37° C) was 9.01 µM (≈ 2 µg/mL) and the MIC (E. faecium HM-952; 5% CO2 atmosphere at 37° C) was greater than 288 µM. For the same compound, the MIC (E. faecium HM-952; ambient air at 37° C) was 9.01 µM (≈ 2 µg/mL), the MIC (E. faecium HM-965; 5% CO2 atmosphere at 37° C) was greater than 288 µM and the MIC (E. faecium HM-965; ambient air at 37° C) was 4.50 µM (≈ 1 µg/mL). The MIC (E. faecium HM-970; 5% CO2 atmosphere at 37° C) was greater than 288 µM, the MIC (E. faecium HM-970; ambient air at 37° C) was 9.01 µM (≈ 2 µg/mL) and the MIC (E. faecium NR-31909 [1]; 5% CO2 atmosphere at 37° C) was greater than 288 µM. For the same compound, the MIC (E. faecium NR-31909 [1]; ambient air at 37° C) was 9.01 µM (≈ 2 µg/mL), the MIC (E. faecium NR-31912; 5% CO2 atmosphere at 37° C) was greater than 288 µM and the MIC (E. faecium NR-31912; ambient air at 37° C) was 9.01 µM (≈ 2 µg/mL). The MIC (E. faecium NR-31933; 5% CO2 atmosphere at 37° C) was greater than 288 µM, the MIC (E. faecium NR-31933; ambient air at 37° C) was 9.01 µM (≈ 2 µg/mL) and the MIC (E. faecium NR-31937; 5% CO2 atmosphere at 37° C) was greater than 288 µM. The MIC (E. faecium NR-31937; ambient air at 37° C) was 9.01 µM (≈ 2 µg/mL), the MIC (E. faecium NR-31954; 5% CO2 atmosphere at 37° C) was greater than 288 µM and the MIC (E. faecium NR-31954; ambient air at 37° C) was 36.0 µM (≈ 8 µg/mL). For the same compound, the MIC (E. faecium NR-32053; 5% CO2 atmosphere at 37° C) was greater than 288 µM, the MIC (E. faecium NR-32053; ambient air at 37° C) was 4.50 µM (≈ 1 µg/mL) and the MIC (E. faecium NR-32094; 5% CO2 atmosphere at 37° C) was greater than 288 µM. The MIC (E. faecium NR-32094; ambient air at 37° C) was 9.01 µM (≈ 2 µg/mL), the MIC (E. avium ATCC 14025; 5% CO2 atmosphere at 37° C) was greater than 288 µM and the MIC (E. avium ATCC 14025; ambient air at 37° C) was 72.0 µM (≈ 16 µg/mL). The MIC ([2]; 5% CO2 atmosphere at 37° C) was greater than 288 µM, the MIC ([2]; ambient air at 37° C) was 72.0 µM (≈ 16 µg/mL) and the MIC (E. durans ATCC 11576; 5% CO2 atmosphere at 37° C) was greater than 288 µM. For the same compound, the MIC (E. durans ATCC 11576; ambient air at 37° C) was 2.25 µM (≈ 0.5 µg/mL), the MIC (E. gallinarum ATCC 49373; 5% CO2 atmosphere at 37° C) was greater than 288 µM and the MIC (E. gallinarum ATCC 49373; ambient air at 37° C) was 36.0 µM (≈ 8 µg/mL). The MIC (E. hirae ATCC 10541; 5% CO2 atmosphere at 37° C) was greater than 288 µM, the MIC (E. hirae ATCC 10541; ambient air at 37° C) was 36.0 µM (≈ 8 µg/mL) and the MIC (E. raffinosus ATCC 49464; 5% CO2 atmosphere at 37° C) was greater than 288 µM. For the same compound, the MIC (E. raffinosus ATCC 49464; ambient air at 37° C) was 36.0 µM (≈ 8 µg/mL), the MIC ([3]; 5% CO2 atmosphere at 37° C) was greater than 288 µM and the MIC ([3]; ambient air at 37° C) was 4.50 µM (≈ 1 µg/mL). The MIC ([4]; 5% CO2 atmosphere at 37° C) was greater than 500 µM, the MIC ([4]; ambient air at 37° C) was 72 µM (≈ 16 µg/mL) and the MIC ([5]; 5% CO2 atmosphere at 37° C) was greater than 500 µM. For the same compound, the MIC ([5]; ambient air at 37° C) was greater than 500 µM, the MIC ([6]; 5% CO2 atmosphere at 37° C) was greater than 500 µM and the MIC ([6]; ambient air at 37° C) was greater than 500 µM. The MIC ([7]; 5% CO2 atmosphere at 37° C) was greater than 500 µM, the MIC ([7]; ambient air at 37° C) was greater than 500 µM and the “Ef MIC50” value ([8]; inhibited 50% of the tested E. faecalis and E. faecium strains) was 9.01 µM. For the same compound, the “Ef MIC90” value ([8]; inhibited 90% of the tested E. faecalis and E. faecium strains) was 18 µM, the “MICs in the presence of CO2” value ([9]; all Enterococcus species, 5% CO2) was greater than 288 µM and the “All Enterococci spp. MIC50” value ([9]; inhibited 50% of all tested Enterococcus strains, ambient air) was 9.01 µM. For the same compound, the “All Enterococci spp. MIC90” value ([9]; inhibited 90% of all tested Enterococcus strains, ambient air) was 36.0 µM, the “potency against α-CA over γ-CA based on Ki” value (E. faecium α-CA) was greater than 5 fold and the “survival (mice rescued)” value (E. faecium NR-31909 [10]; 20 mg/kg PO once-daily for three days, n = 6/group) was 66.7%. The “reduction of VRE bioburden compared to vehicle” value (E. faecium NR-31909 [10]; kidney, liver and spleen, each tissue, 20 mg/kg PO QD three days) was “at least 2 Log10 CFU/mL”, the “reduction of VRE bioburden” value (E. faecium NR-31909 [10]; kidney, liver and spleen, three-day treatment) was greater than 99% and the MIC (E. faecalis HM-334; 5% CO2 atmosphere at 37° C) was greater than 288 µM. For the same compound, the MIC (E. faecalis HM-334; ambient air at 37° C) was 9.01 µM (≈ 2 µg/mL), the MIC (E. faecalis HM-335; 5% CO2 atmosphere at 37° C) was greater than 288 µM and the MIC (E. faecalis HM-335; ambient air at 37° C) was 9.01 µM (≈ 2 µg/mL). The “Log2 (FC)” value [11] was −7.88, the MIC (E. faecalis NR-31971; 5% CO2 atmosphere at 37° C) was greater than 288 µM and the MIC (E. faecalis NR-31971; ambient air at 37° C) was 9.01 µM (≈ 2 µg/mL). For the same compound, the MIC (E. faecalis NR-31972; 5% CO2 atmosphere at 37° C) was greater than 288 µM, the MIC (E. faecalis NR-31972; ambient air at 37° C) was 9.01 µM (≈ 2 µg/mL) and the MIC (E. faecium HM-968; 5% CO2 atmosphere at 37° C) was greater than 288 µM. For the same compound, the MIC (E. faecium HM-968; ambient air at 37° C) was 9.01 µM (≈ 2 µg/mL), the MIC (E. faecium NR-28978; 5% CO2 atmosphere at 37° C) was greater than 288 µM and the MIC (E. faecium NR-28978; ambient air at 37° C) was 9.01 µM (≈ 2 µg/mL). The MIC (E. faecium NR-31903; 5% CO2 atmosphere at 37° C) was greater than 288 µM, the MIC (E. faecium NR-31903; ambient air at 37° C) was 9.01 µM (≈ 2 µg/mL) and the MIC (E. faecium NR-31914; 5% CO2 atmosphere at 37° C) was greater than 288 µM. For the same compound, the MIC (E. faecium NR-31914; ambient air at 37° C) was 9.01 µM (≈ 2 µg/mL), the MIC (E. faecium NR-31916; 5% CO2 atmosphere at 37° C) was greater than 288 µM and the MIC (E. faecium NR-31916; ambient air at 37° C) was 9.01 µM (≈ 2 µg/mL). For the same compound, the MIC (E. faecium NR-32052; 5% CO2 atmosphere at 37° C) was greater than 288 µM, the MIC (E. faecium NR-32052; ambient air at 37° C) was 9.01 µM (≈ 2 µg/mL) and the MIC (E. faecium NR-32065; 5% CO2 atmosphere at 37° C) was greater than 288 µM. For the same compound, the MIC (E. faecium NR-32065; ambient air at 37° C) was 4.50 µM (≈ 1 µg/mL).
